The values below come from ChEMBL document CHEMBL1144765, “Des-A-ring benzothiadiazines: inhibitors of HCV genotype 1 NS5B RNA-dependent RNA polymerase” (Bioorg Med Chem Lett, 2008).

Test in all cases: microbe, parasite or virus in culture
Assay [1] concerns Hepatitis C virus. To be noted: genotype 1b.
Description: Antiviral activity against HCV 1b by replicon based assay
Assay [2] relates to Hepatitis C virus. To be noted: subtype 1a.
Description: Antiviral activity against HCV 1a by replicon based assay
For assay [3], the system named is Hepatitis C virus. To be noted: genotype 1b. This is another data set of the same source.
Description: Antiviral activity against HCV 1b in presence of 5% fetal calf serum by replicon based assay
Assay [4] relates to Hepatitis C virus. The settings on record: genotype 1b. This is another data set of the same source.
Description: Antiviral activity against HCV 1b in presence of 40% human serum by replicon based assay

`CC(C)CCn1c(=O)c(C2=NS(=O)(=O)c3cc(NS(C)(=O)=O)ccc3N2)c(O)c2cccnc21`: the EC50 in assay [1] was found to be 2 nM; in assay [2], 16 nM; in assay [3] it was 2 nM; in assay [4], 736 nM.

In the case of `C/C=C/c1cn(CCC(C)C)c(=O)c(C2=NS(=O)(=O)c3cc(NS(C)(=O)=O)ccc3N2)c1O`, the EC50 in assay [3] came to 5.6 nM; in assay [4], 38.2 nM.

With `CC(C)CCn1ccc(O)c(C2=NS(=O)(=O)c3cc(NS(C)(=O)=O)ccc3N2)c1=O`, the EC50 turned out to be 163 nM in assay [3] and 911 nM in assay [4].

With `C=Cc1cn(CCC(C)C)c(=O)c(C2=NS(=O)(=O)c3cc(NS(C)(=O)=O)ccc3N2)c1O`, the EC50 in assay [3] turned out to be 8.8 nM; in assay [4], 62.5 nM.

A word on the EC50: it is the concentration at which the effect is half-maximal.
